Measured values reported in the supplement of paper PMC11127212.

Experiments:
[1] = collision cross section (TWIMS, N2) of ion [M]+; higher = larger gas-phase ion cross section; conditions: ionization: ESI positive; LC: HILIC, pH 3.0 ammonium formate
Description: (§1)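 Reference standards (20-100 uM) were separated by HILIC UPLC (BEH HILIC, 45 °C): acidic pH 3.0 ammonium formate/formic acid for ESI+ and basic pH 9.0 ammonium acetate/ammonia for ESI-. They were analysed on a Synapt G2-Si traveling-wave IMS-QTOF with nitrogen drift gas (WH 30 V; WV 800 m/s in ESI+ and 1000 m/s in ESI-). CCS (TWCCSN2, Å2) was calibrated with Major Mix IMS/TOF and LockCCS leucine enkephalin; inter-day RSD was <1%.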

[2] = collision cross section (TWIMS, N2) of ion [M-H]-; higher = larger gas-phase ion cross section; conditions: ionization: ESI negative; LC: HILIC, pH 9.0 ammonium acetate
Description: as §1, with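 “ESI-).” for “ESI-). CCS (TWCCSN2, Å2) was calibrated with Major Mix IMS/TOF and LockCCS leucine enkephalin; inter-day RSD was <1%.”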

[3] = retention time on BEH HILIC column (20 min gradient, 0.4 mL/min); higher = later elution; conditions: LC: HILIC
Description: as §1, with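 “ESI-).” for “ESI-). CCS (TWCCSN2, Å2) was calibrated with Major Mix IMS/TOF and LockCCS leucine enkephalin; inter-day RSD was <1%.”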

[4] = collision cross section (TWIMS, N2) of ion [M+Na-2H]-; higher = larger gas-phase ion cross section; conditions: ionization: ESI negative; LC: HILIC, pH 9.0 ammonium acetate
Description: as §1

[5] = collision cross section (TWIMS, N2) of ion [M+Na]+; higher = larger gas-phase ion cross section; conditions: ionization: ESI positive; LC: HILIC, pH 3.0 ammonium formate
Description: as §1

[6] = ionization: ESI negative, pH 9.0 ammonium acetate
[7] = ionization: ESI positive, pH 3.0 ammonium formate

collision cross section [1] [Å²]	collision cross section [2] [Å²]	retention time on BEH HILIC column [3, 6] [min]	retention time on BEH HILIC column [3, 7] [min]	collision cross section [4] [Å²]	collision cross section [5] [Å²]	SMILES
162.11	164.85	8.94	8.96			Cc1ncc(C[n+]2csc(CCO)c2C)c(N)n1 [Thiamine]
	179.19	0.75	0.73	184.54	181.57	CCCCCCCC/C=C\CCCCCCCC(=O)O [Oleic acid]
	131.84	0.93	1.05	135.93	136.22	C[C@@H](CCC(=O)O)CC(=O)O [3-methyladipic acid]
